Results taken from patent publication US6117365A, “Phenolic acid amides of hydroxy-substituted benzylamines” (Haarmann & Reimer GmbH, priority 1997, dated 2000).

Assays:
[1] = DPPH test for the removal of free radicals (activity as free-radical scavengers); details: for EC50 (effective relative concentration, c(test compound)/c(DPPH), at which 50% of the free radical DPPH had been removed): DPPH 100 μmol/l in methanol, absorption at 515 nm read until the decrease was less than 2% per hour
Method: The activity of example compounds 1 to 16 as free-radical scavengers was compared with that of a traditional free-radical scavenger. The DPPH (1,1-diphenyl-2-picrylhydrazyl) test for the removal of free radicals was used.
DPPH was dissolved in methanol to a concentration of 100 μmol/l. A series of dilutions of the example compounds, vitamin C, α-tocopherol, BHT, ferulic acid and of the naturally occurring N-(2-[4-hydroxyphenyl]ethyl)-4-hydroxy-3-methoxy-E-cinnamamide were prepared in methanol. Methanol was used as the control. 2500 μl of the DPPH solution were mixed with 500 μl of each test solution and the decrease in absorption at 515 nm was read until the decrease was less than 2% per hour. The activity of the test substances as free-radical scavengers was calculated using the following equation:
Activity as free-radical scavenger (%)=100-(absorption of the test
compounds)/(absorption of the control)×100.
The activity as free-radical scavengers (%) in a series of dilutions of test compounds was used to calculate, for each test compound, the effective relative concentration EC50 (based on the starting concentration of DPPH, EC=c (test compound)/c(DPPH)) of a test compound, at which 50% of the free radical DPPH had been removed.

[2] = accelerated autoxidation of lipids by air using a RANCIMAT apparatus (activity as antioxidants); details: for AOI (antioxidative index) = IP(with test solution)/IP(control sample): 0.05% of test substance, soy bean oil, 100° C., dry air stream 20 l/h
Method: The activity of example compounds 1 to 16 as antioxidants was compared with that of traditional antioxidants. The test system used was the accelerated autoxidation of lipids by air with or without antioxidant using a RANCIMAT apparatus (RANCIMAT is a registered trade mark of Metrohm AG, Herisau, Switzerland).
The example compounds, vitamin C, α-tocopherol, BHT, ferulic acid and the naturally occurring N-(2-[4-hydroxyphenyl]-ethyl)-4-hydroxy-3-methoxy-E-cinnamamide were dissolved in methanol or acetone, and 100 μl of each test solution were added to a 3 g pre-prepared oil sample (soy bean oil, purified over alumina type N). In a control sample, only solvent was added. A constant, dry air stream (20 l/h) was blown through the oil sample, which contained the test solution and was heated to 100° C., and the volatile oxidation products (predominantly short-chain fatty acids such as formic or acetic acid) were collected in a receiver containing water. The conductivity of this aqueous solution was continuously measured and recorded. The oxidation of (unsaturated) fats proceeds only very slowly for some time and then suddenly increases. The time to the increase is referred to as the induction period (IP).
The following equation was used to calculate the antioxidative index (AOI):
AOI=IP(with test solution) /IP(control sample)

[3] = comparison in words with reference substances

EC50 (effective relative concentration, c(test compound)/c(DPPH), at which 50% of the free radical DPPH had been removed) [1] [mol/mol]	SMILES	AOI (antioxidative index) = IP(with test solution)/IP(control sample) [2]	action as free-radical scavenger, in words [1, 3]	action as antioxidant, in words [2, 3]
0.119	COc1cc(CNC(=O)CCc2ccc(O)c(O)c2)ccc1O [Example 8, N-(4-Hydroxy-3-methoxybenzyl)-3-(3,4-dihydroxyphenyl)-proyanamide]	13.2	–	–
0.1	COc1cc(/C=C/C(=O)NCc2ccc(O)c(O)c2O)cc(OC)c1O [Example 4, N-(2,3,4-Trihydroxybenzyl)-3,5-dimethoxy-4-hydroxy-E-cinnamamide]	17.3	–	–
0.097	COc1cc(/C=C/C(=O)NCc2ccc(O)c(O)c2)cc(OC)c1O [Example 2, N-(3,4-Dihydroxybenzyl)-3,5-dimethoxy-4-hydroxy-E-cinnamamide]	7.58	–	–
0.105	COc1cc(CNC(=O)Cc2ccc(O)c(O)c2)ccc1O [Example 15, N-(4-Hydroxy-3-methoxybenzyl)-3,4-dihydroxyphenylacetamide]	7.84	–	–
0.0097	COc1cc(/C=C/C(=O)NCc2cc(O)c(O)c(O)c2)ccc1O [Example 5, N-(3,4,5-Trihydroxybenzyl)-4-hydroxy-3-methoxy-E-cinnamamide]	21.4	–	–
0.1	COc1cc(/C=C/C(=O)NCc2ccc(O)c(O)c2)ccc1O [Example 1, N-(3,4-Dihydroxybenzyl)-4-hydroxy-3-methoxy-E-cinnamamide]	11.41	–	–
0.350	COc1cc(/C=C/C(=O)O)ccc1O [Ferulic acid, ferulic acid, reference compound]	1.79	–	–
0.089	COc1cc(CNC(=O)/C=C/c2ccc(O)c(O)c2)ccc1O [Example 12, N-(4-Hydroxy-3-methoxybenzyl)-3,4-dihydroxy-E-cinnamamide]	14.3	–	–
0.069	O=C(CCc1ccc(O)c(O)c1)NCc1ccc(O)c(O)c1O [Example 10, N-(2,3,4-Trihydroxybenzyl)-3-(3,4-dihydroxyphenyl)-pronanamide]	24.6	–	–
0.240	Cc1cc(C(C)(C)C)c(O)c(C(C)(C)C)c1 [BHT, 2,6-di-tert-butyl-4-methylphenol, reference compound]	4.77	–	–
0.07	O=C(CCc1ccc(O)c(O)c1)NCc1ccc(O)c(O)c1 [Example 9, N-(3,4-Dihydroxybenzyl)-3-(3,4-dihydroxyphenyl)-propanamide]	19.8	–	–
0.043	O=C(/C=C/c1ccc(O)c(O)c1)NCc1ccc(O)c(O)c1 [Example 11, N-(3,4-Dihydroxybenzyl)-3,4-dihydroxy-E-cinnamamide]	14.9	–	–
0.270	O=C1O[C@H]([C@@H](O)CO)C(O)=C1O [Vitamin C, L-ascorbic acid, reference compound]	1.17	–	–
0.1	COc1cc(CNC(=O)/C=C/c2ccc(O)c(O)c2)cc(OC)c1O [Example 13, N-(3,5-Dimethoxy-4-hydroxybenzyl)-3,4-dihydroxy-E-cinnamamide]	3.6	–	–
0.097	COc1cc(/C=C/C(=O)NCc2ccc(O)c(O)c2O)ccc1O [Example 3, N-(2,3,4-Trihydroxybenzyl)-4-hydroxy-3-methoxy-E-cinnamamide]	11.7	–	–
0.103	COc1cc(CC(=O)NCc2ccc(O)c(O)c2)ccc1O [Example 6, N-(3,4-Dihydroxybenzyl)-4-hydroxy-3-methoxyphenylacetamide]	13.9	–	–
0.441	COc1cc(/C=C/C(=O)NCCc2ccc(O)cc2)ccc1O [N-(2-[4-hydroxyphenyl]ethyl)-4-hydroxy-3-methoxy-E-cinnamamide, reference compound]	1.41	no better than α-tocopherol	no better than α-tocopherol
0.054	O=C(/C=C/c1ccc(O)c(O)c1)NCc1ccc(O)c(O)c1O [Example 14, N-(2,3,4-Trihydroxybenzyl)-3,4-dihydroxy-E-cinnamamide]	27.5	–	–
0.250	Cc1c(C)c2c(c(C)c1O)CCC(C)(CCCC(C)CCCC(C)CCCC(C)C)O2 (stereo not drawn) [α-Tocopherol, α-tocopherol, reference compound]	5.05	–	–
0.053	O=C(Cc1ccc(O)c(O)c1)NCc1ccc(O)c(O)c1 [Example 16, N-(3,4-Dihydroxybenzyl)-3,4-dihydroxyphenylacetamide]	8.84	–	–
0.094	COc1cc(CCC(=O)NCc2ccc(O)c(O)c2)ccc1O [Example 7, N-(3,4-Dihydroxybenzyl)-3-(4-hydroxy-3-methoxyphenyl)-propanamide]	7.7	–	–
